Assay results from ChEMBL document CHEMBL1201862, “PubChem BioAssay data set” (2004).
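Assay format: 96-well plates, 48-hour exposure. At the GI50, growth is halved.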 The source made the active and inactive calls. Cut-off read from the data, not from the text of the source: active = GI50 up to about 1.1 µM and inactive = higher.

What was measured:
Assay in all cases: growth of human tumour cells (NCI), 48 h
[1] = system: OVCAR-4
[2] = system: OVCAR-8
[3] = system: KM12
[4] = system: MCF7
[5] = system: NCI-H460
[6] = system: NCI-H522
[7] = system: Malme-3M
[8] = system: SF-268
[9] = system: OVCAR-5
[10] = system: DU-145
[11] = system: SF-539
[12] = system: MDA-MB-231
[13] = system: SK-MEL-2
[14] = system: HCT-15
[15] = system: SK-MEL-28
[16] = system: SF-295
[17] = system: K562
[18] = system: MOLT-4
[19] = system: SNB-19
[20] = system: HL-60
[21] = system: A549
[22] = system: COLO 205
[23] = system: OVCAR-3
[24] = system: RPMI-8226
[25] = system: PC-3
[26] = system: LOX IMVI
[27] = system: UO-31
[28] = system: NCI-H23
[29] = system: UACC-257
[30] = system: NCI-H226
[31] = system: MDA-MB-435
[32] = system: SR
[33] = system: Hs-578T
[34] = system: NCI/ADR-RES
[35] = system: HCC 2998
[36] = system: SNB-75
[37] = system: CCRF-CEM
[38] = system: A498
[39] = system: ACHN
[40] = system: TK-10
[41] = system: U-251
[42] = system: T47D
[43] = system: HT-29
[44] = system: SN12C
[45] = system: HOP-62
[46] = system: HCT-116
[47] = system: 786-0
[48] = system: M14
[49] = system: EKVX
[50] = system: MDA-N
[51] = system: SW-620
[52] = system: BT-549

Compound: Cc1nc(N)c(N2CCN(S(=O)(=O)N(Cc3ccccc3)Cc3ccccc3)CC2)c(O)n1
- GI50 [1]: 22.2 µM (inactive)
- GI50 [2]: 35.2 µM (inactive)
- GI50 [3]: 56.9 µM (inactive)
- GI50 [4]: 72.3 µM (inactive)
- GI50 [5]: 40.6 µM (inactive)
- GI50 [6]: > 10 µM (inactive)
- GI50 [7]: 25.1 µM (inactive)
- GI50 [8]: 28.6 µM (inactive)
- GI50 [9]: 28 µM (inactive)
- GI50 [10]: 20.7 µM (inactive)
- GI50 [11]: 23.2 µM (inactive)
- GI50 [12]: 62.4 µM (inactive)
- GI50 [13]: 55.2 µM (inactive)
- GI50 [14]: > 100 µM
- GI50 [15]: 17.6 µM (inactive)
- GI50 [16]: 26.4 µM (inactive)
- GI50 [17]: > 100 µM (inactive)
- GI50 [18]: > 100 µM (inactive)
- GI50 [19]: 25 µM (inactive)
- GI50 [20]: 57.7 µM (inactive)
- GI50 [21]: 82.6 µM (inactive)
- GI50 [22]: 23.3 µM (inactive)
- GI50 [23]: 20.6 µM (inactive)
- GI50 [24]: > 100 µM (inactive)
- GI50 [25]: 20.4 µM (inactive)
- GI50 [26]: > 100 µM (inactive)
- GI50 [27]: > 100 µM (inactive)
- GI50 [28]: 21.9 µM (inactive)
- GI50 [29]: 25.4 µM (inactive)
- GI50 [30]: 30.1 µM (inactive)
- GI50 [31]: 38.5 µM (inactive)
- GI50 [32]: > 100 µM (inactive)
- GI50 [33]: 33.3 µM (inactive)
- GI50 [34]: 71.3 µM (inactive)
- GI50 [35]: 87.3 µM (inactive)
- GI50 [36]: 10.9 µM (inactive)
- GI50 [37]: > 100 µM (inactive)
- GI50 [38]: > 10 µM (inactive)
- GI50 [39]: 18.2 µM (inactive)
- GI50 [40]: 26.5 µM (inactive)
- GI50 [41]: 16.9 µM (inactive)
- GI50 [42]: 15.3 µM (inactive)
- GI50 [43]: 26.8 µM (inactive)
- GI50 [44]: 32.7 µM (inactive)
- GI50 [45]: 31.6 µM (inactive)
- GI50 [46]: 28.1 µM (inactive)
- GI50 [47]: 28.9 µM (inactive)
- GI50 [48]: 28.5 µM (inactive)
- GI50 [49]: 58.6 µM (inactive)
- GI50 [50]: 85.1 µM (inactive)
- GI50 [51]: 69.7 µM (inactive)
- GI50 [52]: 48.9 µM (inactive)
